Values quoted from earlier work, collected in paper PMC3273554 (Molecular Pharmaceutics, 2011).

What was measured:
B16F10 = conditions: delivered with poly(I:C) and anti-CD40, boosted; prophylactic B16F10 model
T cells = conditions: intracellular IFN-γ staining
HLA-A201 = conditions: 100µg (63.8nmol) with 50µg PADRE T helper epitope in IFA

For `CCCS(=O)(=O)Nc1ccc(F)c(C(=O)c2c[nH]c3ncc(-c4ccc(Cl)cc4)cc23)c1F` [vemurafenib], the “Response rate in trials” value (melanoma, BRAF V600E) is given as at most 81%.
For SIYDFFVWL [deltaV], the “Tumor growth delay compared to wild type peptide” value (B16F10) is listed as “no increased growth delay” and the “T cell responsiveness to Trp2” value (T cells) is listed as “increased T cell responsiveness”.
In the case of SMYDFFVWL [Trp2 2M], the “IFN-γ elicited compared to vaccination with wild type peptide” value (HLA-A201) is given as “higher amounts of IFN-γ”.
